Data as given in US20090233888A1, “TREATMENT OF DISEASE CONDITIONS THROUGH MODULATION OF HYDROGEN SULFIDE PRODUCED BY SMALL INTESTINAL BACTERIAL OVERGROWTH” (priority 2005, published 2009).

Key:
[1] = test system: intestinal transit across the proximal gut; experiment: Intestinal transit in dogs with duodenal and midgut fistulas; type: in vivo; conditions: last 30 min of 90-min perfusion, mean±SE, buffer control 53.77±5.96%
Procedure: The inventor determined the effect of hydrogen sulfide on intestinal transit. Five dogs were equipped with duodenal and midgut fistulas. With occluding Foley catheters in the distal limb of the 2 fistulas, the small intestine was compartmentalized into the proximal and distal ½ of the gut. The proximal gut was perfused with pH 7.0 phosphate buffer with 0 or 1 mM NaHS (a donor of H2S) at 2 ml/min while the distal gut was perfused with pH 7.0 phosphate buffer with 0 or 60 mM oleate at 2 ml/min for 90 minutes. 60 mM oleate was used to trigger the ileal brake response to slow intestinal transit. Intestinal transit across the proximal gut was measured by the cumulative % recovery of a radioactive marker out of the midgut fistula during the last 30 min of the 90-min perfusion (data=mean±SE).

[2] = inhaled; cited from earlier work
[3] = rat model of HPS, chronic bile duct ligation; cited from earlier work
[4] = single patient with HPS, enhanced oxygenation; cited from earlier work
gut bacteria = conditions: Norfloxacin treatment; cited from earlier work
[5] = 100 patients, mild to moderate AD, doxycycline and rifampin together; cited from earlier work
SIBO = conditions: about 400 mg TID for about 10 days; cited from earlier work

S [Hydrogen sulfide]
Intestinal transit: cumulative % recovery of a radioactive marker out of the midgut fistula ([1]; H2S perfused in distal compartment): 60.72±8.97% | Intestinal transit: cumulative % recovery of a radioactive marker out of the midgut fistula ([1]; H2S perfused in proximal compartment (1 mM NaHS, pH 7.0 phosphate buffer, 2 ml/min)): 37.78±3.80% | level that can be fatal (respiratory failure and pulmonary edema) [2]: > 600 ppm

COC(=O)[C@@H](N)CCCNC(=N)N[N+](=O)[O-] [L-NAME, nomega-nitro-L-arginine methylester]
hypoxia [3]: improved but did not correct hypoxia | extra walking distance [4]: 92 M

CCn1cc(C(=O)O)c(=O)c2cc(F)c(N3CCNCC3)cc21 [Norfloxacin]
iNOS expression (gut bacteria): normalized | severity of intrapulmonary vascular dilatation, reduction (gut bacteria): about ½

CCCCCCCC/C=C\CCCCCCCC(=O)O [fat, oleate]
Intestinal transit: cumulative % recovery of a radioactive marker out of the midgut fistula ([1]; fat (60 mM oleate) in distal 1/2 of gut, ileal brake): 16.00±3.92%

CO[C@H]1/C=C/O[C@@]2(C)Oc3c(C)c(O)c4c(O)c(c(/C=N/N5CCN(C)CC5)c(O)c4c3C2=O)NC(=O)/C(C)=C\C=C\[C@H](C)[C@H](O)[C@@H](C)[C@@H](O)[C@@H](C)[C@H](OC(C)=O)[C@@H]1C [rifampin]
cognitive worsening [5]: reduce cognitive worsening

CO[C@H]1/C=C/O[C@@]2(C)Oc3c(C)c(O)c4c(O)c(c5c(nc6cc(C)ccn65)c4c3C2=O)NC(=O)/C(C)=C\C=C\[C@H](C)[C@H](O)[C@@H](C)[C@@H](O)[C@@H](C)[C@H](OC(C)=O)[C@@H]1C [rifaximin]
efficacy in achieving successful partial eradication of SIBO (SIBO): 60-70%
